Consider 60 compounds from ChEMBL document CHEMBL1130494, “Design and synthesis of a targeted set of aromatic amino acid derivatives for identification of new lead compounds” (Bioorg Med Chem Lett, 1997).

Structures are written as SMILES.

Sequence of Substance-P receptor (P25103 whole entry): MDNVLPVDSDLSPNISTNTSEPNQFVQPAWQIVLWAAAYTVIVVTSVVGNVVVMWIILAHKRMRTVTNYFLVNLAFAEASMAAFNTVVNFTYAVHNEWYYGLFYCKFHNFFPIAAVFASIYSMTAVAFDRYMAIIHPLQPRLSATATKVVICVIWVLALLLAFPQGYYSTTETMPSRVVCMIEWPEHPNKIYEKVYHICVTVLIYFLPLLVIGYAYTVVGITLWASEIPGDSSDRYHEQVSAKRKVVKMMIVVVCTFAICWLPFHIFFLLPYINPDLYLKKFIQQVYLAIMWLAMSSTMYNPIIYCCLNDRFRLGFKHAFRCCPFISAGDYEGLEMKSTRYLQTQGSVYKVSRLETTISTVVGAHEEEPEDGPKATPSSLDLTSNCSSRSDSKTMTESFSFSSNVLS

For one assay, the target named is T1, Neuromedin-K receptor (Homo sapiens, UniProt P29371).
T1 sequence (P29371 whole entry): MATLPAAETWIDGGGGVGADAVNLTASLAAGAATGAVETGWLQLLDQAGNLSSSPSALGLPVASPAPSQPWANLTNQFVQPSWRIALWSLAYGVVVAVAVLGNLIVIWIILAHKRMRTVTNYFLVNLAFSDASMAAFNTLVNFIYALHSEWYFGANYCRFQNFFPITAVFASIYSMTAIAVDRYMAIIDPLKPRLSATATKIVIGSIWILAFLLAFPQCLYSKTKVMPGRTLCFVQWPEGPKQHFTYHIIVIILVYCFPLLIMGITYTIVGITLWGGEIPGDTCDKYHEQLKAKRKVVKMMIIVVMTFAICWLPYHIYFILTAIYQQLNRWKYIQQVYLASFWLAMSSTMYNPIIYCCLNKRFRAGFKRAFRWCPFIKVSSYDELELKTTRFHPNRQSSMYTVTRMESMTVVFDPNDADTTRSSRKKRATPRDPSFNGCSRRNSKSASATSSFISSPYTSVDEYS
Briefly: Concentration required for binding affinity to Tachykinin receptor 3 in chinese hamster ovary cells. The class given is cell-based, CHO.
For `CC(C)OC(=O)N[C@@H](Cc1c[nH]c2ccccc12)C(=O)NCCc1c[nH]c2ccccc12`, the concentration for half-maximal inhibition (IC50) (in general, the concentration that gives 50% inhibition) is 9.42 µM.

The target of the next assay is Neuromedin-B receptor (Homo sapiens, UniProt P28336). Briefly: Binding affinity for human neuromedin B(hNMB) receptor expressed in CHO cells. Type of assay: cell-based.
Sequence of Neuromedin-B receptor (P28336 whole entry): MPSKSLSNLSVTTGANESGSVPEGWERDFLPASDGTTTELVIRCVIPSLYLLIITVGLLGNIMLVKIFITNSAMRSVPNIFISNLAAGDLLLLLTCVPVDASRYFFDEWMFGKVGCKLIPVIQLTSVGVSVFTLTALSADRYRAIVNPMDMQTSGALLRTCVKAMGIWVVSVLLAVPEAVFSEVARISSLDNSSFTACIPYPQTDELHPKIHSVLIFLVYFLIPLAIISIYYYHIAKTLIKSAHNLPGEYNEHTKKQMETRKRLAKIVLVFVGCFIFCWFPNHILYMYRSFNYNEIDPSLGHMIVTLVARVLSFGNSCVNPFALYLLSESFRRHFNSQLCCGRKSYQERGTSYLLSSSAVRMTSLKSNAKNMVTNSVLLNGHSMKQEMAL
As for `O=C(NC(Cc1c[nH]c2ccccc12)C(=O)NCCc1ccccc1)OCc1cnc[nH]1` (centres undefined), the Ki (commonly a dissociation constant, usually derived from enzyme kinetics or from competition with a known ligand) was found to be 2.6 µM.
Same read-out and setting: under `O=C(N[C@@H](Cc1c[nH]c2ccccc12)C(=O)NCCc1ccccc1)OCc1c[nH]cn1` stands 2.7 µM.
On the same count and under the same terms, under `CC(C)CNC(=O)C(Cc1c[nH]c2ccccc12)NC(=O)OCc1cn(C(c2ccccc2)(c2ccccc2)c2ccccc2)cn1` (centres undefined) stands 0.037 µM; under `O=C(N[C@@H](Cc1c[nH]c2ccccc12)C(=O)NCCc1ccccc1)OCc1ccccc1`, 2.6 µM; under `CC(C)CCNC(=O)[C@H](Cc1c[nH]c2ccccc12)NC(=O)OCc1cnc[nH]1`, 3.9 µM.
With `CC(C)CNC(=O)[C@H](Cc1c[nH]c2ccccc12)NC(=O)OCC(C)C`, the inhibitory constant (Ki) was > 10 µM.
As to `COC(=O)N[C@@H](Cc1c[nH]c2ccccc12)C(=O)NCCO`, the inhibitory constant (Ki) is > 10 µM.
With `O=C(O)CCNC(=O)[C@H](Cc1c[nH]c2ccccc12)NC(=O)OCCc1c[nH]c2ccccc12`, the Ki was > 10 µM.
On the same count and under the same terms, to `O=C(N[C@@H](Cc1c[nH]c2ccccc12)C(=O)NCCc1c[nH]c2ccccc12)OCc1c[nH]cn1` belongs 3.7 µM.
On the same count and under the same terms, under `CC(C)COC(=O)N[C@@H](Cc1c[nH]c2ccccc12)C(=O)NCCO` stands > 10 µM; under `CC(C)CCNC(=O)[C@H](Cc1c[nH]c2ccccc12)NC(=O)OCC(C)C`, > 10 µM.
The compound `CC(C)CCNC(=O)C(Cc1c[nH]c2ccccc12)NC(=O)OCc1c[nH]cn1` (centres undefined) displayed an inhibitory constant (Ki) of 3.9 µM.
As to `COC(=O)N[C@@H](Cc1c[nH]c2ccccc12)C(=O)NCCc1c[nH]c2ccccc12`, the Ki is > 10 µM.
In the case of `NCCCCCNC(=O)[C@H](Cc1c[nH]c2ccccc12)NC(=O)OCc1ccccc1`, the Ki is > 10 µM.
As for `NCCCCOC(=O)N[C@@H](Cc1c[nH]c2ccccc12)C(=O)NCCO`, the Ki was > 10 µM.
Turning to `COC(=O)N[C@@H](Cc1c[nH]c2ccccc12)C(=O)NCCc1ccccc1`, the Ki was > 10 µM.
On to `NCCCCOC(=O)N[C@@H](Cc1c[nH]c2ccccc12)C(=O)NCCc1c[nH]c2ccccc12`, for which affinity was put at a Ki of 8.9 µM.
The same measure, in the same setting: to `CC(C)COC(=O)N[C@@H](Cc1c[nH]c2ccccc12)C(=O)NCCc1cnc[nH]1` belongs > 10 µM; to `CC(C)OC(=O)N[C@@H](Cc1c[nH]c2ccccc12)C(=O)NCCO`, > 10 µM; to `O=C(N[C@@H](Cc1c[nH]c2ccccc12)C(=O)NCCc1c[nH]c2ccccc12)OCCc1c[nH]c2ccccc12`, 0.98 µM.
In the case of `NCCCCCNC(=O)[C@H](Cc1c[nH]c2ccccc12)NC(=O)OCC(=O)O`, the Ki is > 10 µM.
Same read-out and setting: to `O=C(O)COC(=O)N[C@@H](Cc1c[nH]c2ccccc12)C(=O)NCCc1c[nH]c2ccccc12` belongs > 10 µM; to `CC(C)CNC(=O)[C@H](Cc1c[nH]c2ccccc12)NC(=O)OCCCCN`, > 10 µM.
Still for that read-out and setting: to `CC(C)OC(=O)N[C@@H](Cc1c[nH]c2ccccc12)C(=O)NCCc1c[nH]c2ccccc12` belongs > 10 µM; to `O=C(O)COC(=O)N[C@@H](Cc1c[nH]c2ccccc12)C(=O)NCCO`, > 10 µM; to `COC(=O)N[C@@H](Cc1c[nH]c2ccccc12)C(=O)NCCC(=O)O`, > 10 µM.
On the same count and under the same terms, to `NCCCCOC(=O)N[C@@H](Cc1c[nH]c2ccccc12)C(=O)NCCc1ccccc1` belongs > 10 µM.
Consider `CC(C)CCNC(=O)[C@H](Cc1c[nH]c2ccccc12)NC(=O)OC(C)C`, for which the inhibition constant Ki was > 10 µM.
The same measure, in the same setting: to `O=C(N[C@@H](Cc1c[nH]c2ccccc12)C(=O)NCCc1c[nH]cn1)OCc1ccccc1` belongs > 10 µM; to `NCCCCCNC(=O)[C@H](Cc1c[nH]c2ccccc12)NC(=O)OCCCCN`, > 10 µM; to `CC(C)CCNC(=O)[C@H](Cc1c[nH]c2ccccc12)NC(=O)OCC(=O)O`, > 10 µM.
For `CC(C)OC(=O)N[C@@H](Cc1c[nH]c2ccccc12)C(=O)NCCCCCN`, the Ki was > 10 µM.
As for `CC(C)CCNC(=O)[C@H](Cc1c[nH]c2ccccc12)NC(=O)OCc1ccccc1`, the Ki came out at 6.1 µM. This counts as single-digit micromolar.
With `CC(C)CCNC(=O)[C@H](Cc1c[nH]c2ccccc12)NC(=O)OCCCCN`, the Ki is > 10 µM.
`CC(C)CNC(=O)[C@H](Cc1c[nH]c2ccccc12)NC(=O)OC(C)C`: the inhibition constant (Ki) was > 10 µM.
Same read-out and setting: to `O=C(N[C@@H](Cc1c[nH]c2ccccc12)C(=O)NCCO)OCCc1c[nH]c2ccccc12` belongs > 10 µM; to `CC(C)CNC(=O)[C@H](Cc1c[nH]c2ccccc12)NC(=O)OCCc1c[nH]c2ccccc12`, 3.5 µM.
As for `CC(C)COC(=O)N[C@@H](Cc1c[nH]c2ccccc12)C(=O)NCCc1c[nH]c2ccccc12`, affinity was put at a Ki of 4.7 µM.
`CC(C)COC(=O)N[C@@H](Cc1c[nH]c2ccccc12)C(=O)NCCCCCN`: the Ki is > 10 µM.
In turn, `O=C(N[C@@H](Cc1c[nH]c2ccccc12)C(=O)NCCc1ccccc1)OCCc1c[nH]c2ccccc12` registered a Ki of 1.1 µM.
On the same count and under the same terms, under `COC(=O)N[C@@H](Cc1c[nH]c2ccccc12)C(=O)NCCC(C)C` stands > 10 µM; under `NCCCCOC(=O)N[C@@H](Cc1c[nH]c2ccccc12)C(=O)NCCc1cnc[nH]1`, > 10 µM.
The same measure, in the same setting: to `CC(C)OC(=O)N[C@@H](Cc1c[nH]c2ccccc12)C(=O)NCCc1c[nH]cn1` belongs > 10 µM; to `CC(C)CNC(=O)[C@H](Cc1c[nH]c2ccccc12)NC(=O)OCc1ccccc1`, > 10 µM; to `COC(=O)N[C@@H](Cc1c[nH]c2ccccc12)C(=O)NCC(C)C`, > 10 µM.
Still for that read-out and setting: under `COC(=O)N[C@@H](Cc1c[nH]c2ccccc12)C(=O)NCCCCCN` stands > 10 µM; under `O=C(O)COC(=O)N[C@@H](Cc1c[nH]c2ccccc12)C(=O)NCCc1ccccc1`, > 10 µM.
In the case of `O=C(O)CCNC(=O)[C@H](Cc1c[nH]c2ccccc12)NC(=O)OCc1ccccc1`, the Ki is > 10 µM.
On to `CC(C)CCNC(=O)[C@H](Cc1c[nH]c2ccccc12)NC(=O)OCCc1c[nH]c2ccccc12`, for which the inhibition constant Ki is 2.7 µM.
Same read-out and setting: under `NCCCCCNC(=O)[C@H](Cc1c[nH]c2ccccc12)NC(=O)OCCc1c[nH]c2ccccc12` stands 7.8 µM; under `O=C(N[C@@H](Cc1c[nH]c2ccccc12)C(=O)NCCO)OCc1ccccc1`, > 10 µM; under `CC(C)OC(=O)N[C@@H](Cc1c[nH]c2ccccc12)C(=O)NCCc1ccccc1`, > 10 µM.
Same read-out and setting: under `O=C(N[C@@H](Cc1c[nH]c2ccccc12)C(=O)NCCc1c[nH]cn1)OCCc1c[nH]c2ccccc12` stands 5 µM.
With `CC(C)CNC(=O)[C@H](Cc1c[nH]c2ccccc12)NC(=O)OCC(=O)O`, the Ki was > 10 µM.
The same measure, in the same setting: to `CC(C)CNC(=O)[C@H](Cc1c[nH]c2ccccc12)NC(=O)OCc1c[nH]cn1` belongs > 10 µM.
The same measure, in the same setting: under `COC(=O)N[C@@H](Cc1c[nH]c2ccccc12)C(=O)NCCc1cnc[nH]1` stands > 10 µM; under `CC(C)OC(=O)N[C@@H](Cc1c[nH]c2ccccc12)C(=O)NCCC(=O)O`, > 10 µM.
`CC(C)COC(=O)N[C@@H](Cc1c[nH]c2ccccc12)C(=O)NCCc1ccccc1` had a Ki of 4.3 µM. That is a single-digit micromolar value.
Still for that read-out and setting: to `CC(C)COC(=O)N[C@@H](Cc1c[nH]c2ccccc12)C(=O)NCCC(=O)O` belongs > 10 µM.
`NCCCCOC(=O)N[C@@H](Cc1c[nH]c2ccccc12)C(=O)NCCC(=O)O`: the Ki was > 10 µM.

A further assay addresses Substance-P receptor (Homo sapiens, UniProt P25103). Description: Concentration required for binding affinity to neurokinin (NK1) receptor in human IM9 cells. The class given is cell-based, IM-9.
For `CC(C)COC(=O)N[C@@H](Cc1c[nH]c2ccccc12)C(=O)NCCc1c[nH]c2ccccc12`, the 50% inhibitory concentration (IC50) is 0.43 µM.

Another assay deals with T2, Substance-K receptor (Mesocricetus auratus, UniProt P51144).
T2 sequence (P51144 whole entry): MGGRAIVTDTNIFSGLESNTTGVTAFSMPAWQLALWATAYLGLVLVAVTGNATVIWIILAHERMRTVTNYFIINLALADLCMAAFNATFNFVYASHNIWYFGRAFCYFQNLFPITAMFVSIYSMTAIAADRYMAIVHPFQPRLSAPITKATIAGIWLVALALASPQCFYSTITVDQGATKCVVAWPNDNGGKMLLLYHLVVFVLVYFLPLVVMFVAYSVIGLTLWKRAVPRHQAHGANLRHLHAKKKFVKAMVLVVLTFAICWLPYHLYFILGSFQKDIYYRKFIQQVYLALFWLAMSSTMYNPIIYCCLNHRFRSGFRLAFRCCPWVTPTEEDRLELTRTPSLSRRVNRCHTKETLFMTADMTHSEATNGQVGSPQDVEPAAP
Description: Concentration required for binding affinity to neurokinin (NK2) receptor in hamster urinary bladder.
As for `O=C(N[C@@H](Cc1c[nH]c2ccccc12)C(=O)NCCc1ccccc1)OCc1ccccc1`, the IC50 is 3.27 µM. This lies in the single-digit micromolar range.

Another assay concerns the target T3, Gastrin/cholecystokinin type B receptor (Mus musculus, UniProt P56481).
T3 sequence (P56481 whole entry): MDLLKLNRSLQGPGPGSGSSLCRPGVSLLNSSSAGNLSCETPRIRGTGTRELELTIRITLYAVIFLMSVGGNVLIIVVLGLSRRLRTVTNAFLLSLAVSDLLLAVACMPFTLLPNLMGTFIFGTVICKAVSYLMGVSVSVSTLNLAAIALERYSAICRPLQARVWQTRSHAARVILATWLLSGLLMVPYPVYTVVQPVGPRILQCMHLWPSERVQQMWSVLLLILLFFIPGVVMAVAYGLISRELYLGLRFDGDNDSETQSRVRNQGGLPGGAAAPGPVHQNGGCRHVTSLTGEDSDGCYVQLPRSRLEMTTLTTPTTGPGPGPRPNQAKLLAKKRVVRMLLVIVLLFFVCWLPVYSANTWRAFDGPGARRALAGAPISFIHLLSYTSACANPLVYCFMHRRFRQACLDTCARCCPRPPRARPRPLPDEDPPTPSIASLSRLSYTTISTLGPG
Briefly: Concentration required for binding affinity to neuropeptide (CCK-B) receptor in mouse cerebral cortex. Type of assay: tissue-based.
`CC(C)CCNC(=O)[C@H](Cc1c[nH]c2ccccc12)NC(=O)OCc1ccccc1`: the half-inhibitory concentration (IC50) is 2.12 µM. That is a single-digit micromolar value.
